Source: ChEMBL document CHEMBL5506015, “Discovery of a Meisoindigo-Derived PROTAC as the ATM Degrader: Revolutionizing Colorectal Cancer Therapy via Synthetic Lethality with ATR Inhibitors” (J Med Chem, 2024)
The source made the active and inactive calls. The rule behind the calls is not given here.

Key:
[1] = Cytotoxicity against human HIEC-6 cells assessed as reduction in cell viability incubated for 48 hrs by MTT assay; type: toxicity, cell-based
SW-620 [2] = assay: Downregulation of BCL2 level in human SW620 cells at 1.25 to 10 uM measured after 12 hrs by immunoblot analysis; type: functional, cell-based; conditions: dose 1.25-10 µM
HCT-116 [3] = assay: Cytotoxicity against human HCT-116 cells assessed as reduction in cell viability incubated for 48 hrs by MTT assay; conditions: HCT-116, 48 h
K562 [4] = assay: Cytotoxicity against human K562 cells assessed as reduction in cell viability incubated for 48 hrs by MTT assay; conditions: K562, 48 h
SW480 [5] = assay: Induction of apoptosis in human SW480 cells measured after 12 hrs by Annexin V-FITC/propidium iodide staining-based flow cytometric analysis; type: functional, cell-based; conditions: dose 5-10 µM
SW-620 [6] = assay: Downregulation of KDM4B level in human SW620 cells measured after 12 hrs by immunoblot analysis; type: functional, cell-based; conditions: dose 1.25-10 µM
[7] = Downregulation of ATM level in human SW620 cells transfected with NC shRNA by immunoblot analysis; type: functional, SW-620
[8] = Downregulation of ATM level in human HCT-116 cells transfected with NC shRNA by immunoblot analysis; type: functional
SW-620 [9] = assay: Cytotoxicity against human SW620 cells transfected with NC shRNA assessed as reduction in cell viability measured after 48 hrs by MTT assay; conditions: SW-620, 48 h
SW480 [10] = assay: Cytotoxicity against human SW480 cells transfected with NC shRNA assessed as reduction in cell viability measured after 48 hrs by MTT assay; conditions: SW480, 48 h
HCT-116 [11] = assay: Cytotoxicity against human HCT-116 cells transfected with NC shRNA assessed as reduction in cell viability measured after 48 hrs by MTT assay; conditions: HCT-116, 48 h
SW-620 [12] = assay: Induction of DNA damage in human SW620 cells assessed as accumulation of phosphorylated-chk2 (Thr68) measured after 12 hrs by immunoblot analysis; type: functional, cell-based; conditions: dose 2.5-10 µM
K562 [13] = assay: Induction of DNA damage in human K562 cells assessed as accumulation of phosphorylated-chk2 (Thr68) measured after 8 hrs by immunoblot analysis; type: functional, cell-based
K562 [14] = assay: Induction of DNA damage in human K562 cells assessed as gamma-H2AX accumulation at 20 uM by immunoblot analysis; type: functional, cell-based; conditions: time <= 12.0 hrs, TDE = time-dependent effect
SW-620 [15] = assay: Induction of DNA damage in human SW620 cells assessed as gamma-H2AX accumulation incubated for 12 hrs by immunoblot analysis; type: functional, cell-based; conditions: dose 2.5-10 µM
SW480 [16] = assay: Potentiation of AZD6738 induced DNA damage in human SW480 cells assessed as gamma-H2AX accumulation in nuclei at 5 uM incubated for 12 hrs by immunohistochemical staining based analysis; type: functional, cell-based
K562 [17] = assay: Potentiation of AZD6738 induced DNA damage in human K562 cells assessed as gamma-H2AX accumulation in nuclei at 5 uM incubated for 12 hrs by immunohistochemical staining based analysis; type: functional, cell-based
SW-620 [18] = assay: Antitumor activity against human SW620 cells xenografted in Balb/c nude mouse model assessed as reduction in tumor load at 15 mg/kg/day administered for 14 days by vernier caliper based analysis; type: functional, organism-based; conditions: time 14.0 day
[19] = Toxicity in Balb/c nude mouse assessed as effect on body weight loss at 15 mg/kg/day administered for 14 days in presence of AZD6738 […]; type: organism-based; conditions: in vivo, 336 h, time 14 day
[20] = Toxicity in Balb/c nude mouse assessed as drug tolerance at 15 mg/kg/day administered for 14 days; type: organism-based; conditions: in vivo, 336 h, time 14 day
[21] = Toxicity in Balb/c nude mouse assessed as drug tolerance at 15 mg/kg/day administered for 14 days in presence of AZD6738; type: organism-based; conditions: in vivo, 336 h, time 14 day
SW-620 [22] = assay: Antitumor activity against human SW620 cells xenografted in Balb/c nude mouse model assessed as decrease in BCL2 protein level at 15 mg/kg/day measured after 14 days by Western blot analysis; type: functional, organism-based; conditions: time 14.0 day
SW-620 [23] = assay: Antitumor activity against human SW620 cells xenografted in Balb/c nude mouse model assessed as decrease in pro caspase 3 level at 15 mg/kg/day measured after 14 days by Western blot analysis; type: functional, organism-based; conditions: time 14.0 day
SW-620 [24] = assay: Antitumor activity against human SW620 cells xenografted in Balb/c nude mouse model assessed as increase in gamma-H2AX level at 15 mg/kg/day measured after 14 days by Western blot analysis; type: functional, organism-based; conditions: time 14.0 day
SW-620 [25] = assay: Antitumor activity against human SW620 cells xenografted in Balb/c nude mouse model assessed as inflammatory cell infiltration at 15 mg/kg/day measured after 14 days by H and E staining based analysis; type: functional, organism-based; conditions: time 14.0 day
SW-620 [26] = assay: Antitumor activity against human SW620 cells xenografted in Balb/c nude mouse model assessed as fibrosis at 15 mg/kg/day measured after 14 days by H and E staining based analysis; type: functional, organism-based; conditions: time 14.0 day
SW-620 [27] = assay: Downregulation of ATM level in human SW620 cells at 10 uM by immunoblot analysis; type: functional, cell-based; conditions: time <= 24.0 hrs, TDE = time-dependent effect
SW480 [28] = assay: Downregulation of ATM level in human SW480 cells at 10 uM by immunoblot analysis; type: functional, cell-based; conditions: time <= 12.0 hrs, TDE = time-dependent effect
K562 [29] = assay: Downregulation of ATM level in human K562 cells measured after 8 hrs by immunoblot analysis; type: functional, cell-based; conditions: dose 5-20 µM

Cc1ncsc1-c1ccc(CNC(=O)[C@@H]2C[C@@H](O)CN2C(=O)[C@@H](NC(=O)CCCCCn2cc(CCCN3C(=O)/C(=C4/C(=O)Nc5ccccc54)c4ccccc43)nn2)C(C)(C)C)cc1
IC50 at 48 h ([1]; HIEC-6 cells): 23.9 µM
Activity ([1]; hiec-6, 48 h, dose 0.01-50 µM, time 48 hrs): Dose-Dependent Effect
Activity (SW-620 [2]): Active
IC50 (HCT-116 [3]): 5.82 µM
IC50 (K562 [4]): 4.06 µM
Activity (SW480 [5]): Dose-Dependent Effect
Activity (SW-620 [6]): Dose-Dependent Effect
Activity [7]: 100%
Activity [8]: 100%
IC50 (SW-620 [9]): 3.7 µM
IC50 (SW480 [10]): 2.59 µM
IC50 (HCT-116 [11]): 5.82 µM
Activity (SW-620 [12]): Dose-Dependent Effect
Activity (K562 [13]): Dose-Dependent Effect
Activity (K562 [14]): Tde
Activity (SW-620 [15]): Dose-Dependent Effect
Activity (SW480 [16]): Active
Activity (K562 [17]): Active
Activity (SW-620 [18]): Active
Activity [19]: Non-Toxic
Activity [20]: Non-Toxic
Activity [21]: Non-Toxic
Activity (SW-620 [22]): Active
Activity (SW-620 [23]): Active
Activity (SW-620 [24]): Active
Activity (SW-620 [25]): Active
Activity (SW-620 [26]): Active
Activity (SW-620 [27]): Tde
Activity (SW480 [28]): Tde
Activity (K562 [29]): Dose-Dependent Effect
